Where a SMILES comes first, the peptide text is derived from it. Bridges are numbered along the chain shown (N, C = ends). [ ]: non-standard residue; d: D form. 2Nal = N[C@@H](Cc1ccc2ccccc2c1)C(=O)O; d2Nal = N[C@H](Cc1ccc2ccccc2c1)C(=O)O
Experiments:
Type in all cases: binding
α1-adrenergic receptor = assay: α1-adrenergic membrane receptor assay, rat cerebral cortex; settings: 1 μM
CCKB = target: T1, CCKB (Rattus norvegicus, UniProt P30553); assay: CCKB membrane receptor assay, rat cerebral cortex; settings: 1 μM
T1 construct: rat cerebral cortex (CCKB, PYY, neurotensin,; from tissue; host or cells: rat cerebral cortex membranes

adenosine1 receptor = target: T2, adenosine1 receptor (Rattus norvegicus, UniProt P25099); assay: Adenosine membrane receptor assay, rat cerebral cortex; settings: 1 μM
T2 construct: rat cerebral cortex (CCKB, PYY, neurotensin, α1 -adrenergic, α2 -adrenergic, muscarinic cholinergic, neural benzodiazepine, peripheral benzodiazepine, adenosine,; from tissue; host or cells: rat cerebral cortex membranes

[1] = target: T3, N-methyl D-aspartate receptors (Rattus norvegicus, UniProt P35439); assay: N-methyl-D-aspartate membrane receptor assay, rat cerebral cortex; settings: 1 μM
T3 construct: from tissue; host or cells: rat cerebral cortex membranes

delta opioid receptor = target: T4, delta opioid receptor (Rattus norvegicus, UniProt P33533); assay: Delta opioid membrane assay, rat forebrain; settings: 1 μM
T4 construct: rat forebrain (TRH, mu and delta opioid membrane assays); from tissue; host or cells: rat forebrain membranes

PYY receptor = assay: PYY membrane receptor assay, rat cerebral cortex; settings: 1 μM
[2] = tested on: benzodiazepine-neural receptor; assay: Neural benzodiazepine membrane receptor assay, rat cerebral cortex; settings: 1 μM
[3] = tested on: muscarinic cholinergic receptor; assay: Muscarinic cholinergic membrane receptor assay, rat cerebral cortex; settings: 1 μM
histamine H1 receptor = target: T5, histamine H1 receptor (Cavia porcellus, UniProt P31389); assay: Histamine H1 membrane receptor assay, guinea pig cerebral; settings: 1 μM
T5 construct: guinea pig cerebral (N1, histamine H1, and sigma opioid membrane receptor assays); from tissue; host or cells: guinea pig cerebral membranes

CCKA receptors = target: T6, CCKA receptors (Rattus norvegicus, UniProt P30551); assay: CCKA receptor assay, 125I-CCK-8, rat pancreatic membranes
T6 construct: rat pancreas (CCKA receptor assay); from tissue; host or cells: rat pancreas membranes

β1-adrenergic receptor = target: T7, β1-adrenergic receptor (Homo sapiens, UniProt P08588); assay: β1-adrenergic membrane receptor assay, [3H]dihydroalprenolol; settings: 1 μM
T7 construct: receptors on plasma membranes on various tissues determined as described in METHODS; from tissue; host or cells: plasma membranes

α2-adrenergic receptor = assay: α2-adrenergic membrane receptor assay, rat cerebral cortex; settings: 1 μM

T6 sequence (P30551 whole entry): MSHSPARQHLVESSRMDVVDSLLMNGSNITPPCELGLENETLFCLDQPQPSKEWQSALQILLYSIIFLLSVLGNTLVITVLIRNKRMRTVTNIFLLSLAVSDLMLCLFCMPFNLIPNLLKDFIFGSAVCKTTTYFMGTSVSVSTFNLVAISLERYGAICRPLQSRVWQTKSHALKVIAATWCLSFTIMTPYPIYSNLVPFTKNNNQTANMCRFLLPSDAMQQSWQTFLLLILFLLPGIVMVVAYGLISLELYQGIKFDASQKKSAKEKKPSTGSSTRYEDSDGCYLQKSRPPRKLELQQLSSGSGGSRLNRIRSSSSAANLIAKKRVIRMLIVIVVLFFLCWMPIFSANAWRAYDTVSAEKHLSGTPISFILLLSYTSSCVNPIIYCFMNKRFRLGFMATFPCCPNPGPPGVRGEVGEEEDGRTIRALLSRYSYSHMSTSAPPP
T7 sequence (P08588 whole entry): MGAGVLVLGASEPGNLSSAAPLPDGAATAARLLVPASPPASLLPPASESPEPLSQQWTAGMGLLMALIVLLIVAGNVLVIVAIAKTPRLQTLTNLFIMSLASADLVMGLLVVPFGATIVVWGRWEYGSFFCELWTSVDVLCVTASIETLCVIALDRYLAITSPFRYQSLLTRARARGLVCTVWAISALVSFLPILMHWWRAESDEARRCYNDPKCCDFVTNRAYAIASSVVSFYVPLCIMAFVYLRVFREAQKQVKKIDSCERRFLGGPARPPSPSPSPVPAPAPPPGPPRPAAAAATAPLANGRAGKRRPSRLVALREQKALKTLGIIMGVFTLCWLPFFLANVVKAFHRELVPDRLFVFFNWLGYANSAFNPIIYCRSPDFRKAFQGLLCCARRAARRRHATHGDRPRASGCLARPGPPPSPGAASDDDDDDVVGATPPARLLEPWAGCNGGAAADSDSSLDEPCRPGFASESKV
T1 sequence (P30553 whole entry): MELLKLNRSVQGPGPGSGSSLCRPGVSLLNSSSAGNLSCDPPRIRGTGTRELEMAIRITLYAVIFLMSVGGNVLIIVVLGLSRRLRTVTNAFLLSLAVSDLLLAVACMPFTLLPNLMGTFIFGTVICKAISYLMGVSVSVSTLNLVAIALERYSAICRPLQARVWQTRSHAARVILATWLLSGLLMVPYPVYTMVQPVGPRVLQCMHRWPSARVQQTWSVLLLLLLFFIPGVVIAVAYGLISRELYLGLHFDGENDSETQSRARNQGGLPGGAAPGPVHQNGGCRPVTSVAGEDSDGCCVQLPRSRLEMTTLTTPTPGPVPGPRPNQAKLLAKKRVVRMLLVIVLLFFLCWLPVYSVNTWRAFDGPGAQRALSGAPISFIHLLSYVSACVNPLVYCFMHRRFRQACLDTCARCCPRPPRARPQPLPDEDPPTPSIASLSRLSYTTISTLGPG
T4 sequence (P33533 whole entry): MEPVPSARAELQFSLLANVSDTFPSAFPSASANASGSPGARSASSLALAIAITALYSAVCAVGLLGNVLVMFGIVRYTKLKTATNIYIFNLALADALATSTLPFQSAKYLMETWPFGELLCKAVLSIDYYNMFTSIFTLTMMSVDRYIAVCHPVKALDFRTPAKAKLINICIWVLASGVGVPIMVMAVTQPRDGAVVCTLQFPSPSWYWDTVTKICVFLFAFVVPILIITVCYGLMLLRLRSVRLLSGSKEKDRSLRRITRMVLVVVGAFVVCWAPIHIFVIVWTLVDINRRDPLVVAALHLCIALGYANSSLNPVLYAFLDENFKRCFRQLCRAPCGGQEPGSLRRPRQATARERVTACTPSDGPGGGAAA
T5 sequence (P31389 whole entry): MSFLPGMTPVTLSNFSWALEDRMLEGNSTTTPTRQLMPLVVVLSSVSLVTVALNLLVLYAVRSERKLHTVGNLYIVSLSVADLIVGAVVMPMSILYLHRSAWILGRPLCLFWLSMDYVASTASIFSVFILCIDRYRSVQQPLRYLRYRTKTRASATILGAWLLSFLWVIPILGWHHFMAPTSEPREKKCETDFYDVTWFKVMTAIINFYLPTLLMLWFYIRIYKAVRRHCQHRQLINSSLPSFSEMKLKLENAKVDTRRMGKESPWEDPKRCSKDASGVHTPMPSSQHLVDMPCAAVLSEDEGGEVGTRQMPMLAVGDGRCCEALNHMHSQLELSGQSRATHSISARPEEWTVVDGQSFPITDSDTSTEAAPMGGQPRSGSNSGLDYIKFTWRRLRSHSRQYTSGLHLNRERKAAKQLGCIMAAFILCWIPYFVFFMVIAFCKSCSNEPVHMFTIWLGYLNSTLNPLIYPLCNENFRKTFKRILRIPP
T2 sequence (P25099 whole entry): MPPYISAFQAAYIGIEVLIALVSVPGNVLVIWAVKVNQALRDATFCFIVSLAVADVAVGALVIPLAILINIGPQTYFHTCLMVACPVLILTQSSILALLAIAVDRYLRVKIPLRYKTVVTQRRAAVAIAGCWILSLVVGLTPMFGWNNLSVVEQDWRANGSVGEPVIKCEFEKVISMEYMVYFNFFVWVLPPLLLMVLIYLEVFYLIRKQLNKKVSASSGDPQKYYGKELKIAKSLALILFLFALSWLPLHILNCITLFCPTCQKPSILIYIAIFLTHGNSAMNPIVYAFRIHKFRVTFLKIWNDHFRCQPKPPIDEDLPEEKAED

SMILES: CC(C)[C@@H]1NC(=O)[C@H](CCCCN)NC(=O)[C@@H](Cc2c[nH]c3ccccc23)NC(=O)[C@H](Cc2ccc(O)cc2)NC(=O)[C@@H](NC(=O)[C@H](N)Cc2ccc3ccccc3c2)CSSC[C@@H](C(=O)N[C@@H](Cc2ccc3ccccc3c2)C(N)=O)NC1=O [Analog #1, H2 -D-Nal-Cys-Tyr-D-Trp-Lys-Val-Cys-Nal-NH2] (H-[d2Nal]CY[dW]KVC[2Nal]-NH2; disulfide 2-7)
- inhibition of binding to α1-adrenergic receptors (α1-adrenergic receptor): did not inhibit binding
- inhibition of binding to CCKB receptors (CCKB): did not inhibit binding
- inhibition of binding to adenosine1 receptors (adenosine1 receptor): did not inhibit binding
- inhibition of binding to N-methyl D-aspartate receptors [1]: did not inhibit binding
- inhibition of binding to delta opioid receptors (delta opioid receptor): did not inhibit binding
- inhibition of binding to PYY receptors (PYY receptor): did not inhibit binding
- inhibition of binding to benzodiazepine-neural receptors [2]: did not inhibit binding
- inhibition of binding to muscarinic cholinergic receptors [3]: did not inhibit binding
- inhibition of binding to histamine H1 receptors (histamine H1 receptor): did not inhibit binding
- inhibition of binding to CCKA receptors (CCKA receptors; 1 μM): did not inhibit binding
- Ki (CCKA receptors; rat pancreatic membranes, read-out: affinity, inhibition of 125I-CCK-8 binding to CCKA receptors): 5.537 ± 0.007 µM
- inhibition of binding to β1-adrenergic receptors (β1-adrenergic receptor): did not inhibit binding
- inhibition of binding to α2-adrenergic receptors (α2-adrenergic receptor): did not inhibit binding

Source: patent publication US5462926A (Biomeasure, Inc., priority 1993, dated 1995)
